Experimental data as given in US10206394B2, “Herbicidal compounds” (Syngenta Participations AG, priority 2014, dated 2019).
Read-outs that look alike come from different tables or passages of the source.

Columns and labels:
Experiment in all cases: Glasshouse assay for herbicidal activity (pre- and post-emergence), percentage phytotoxicity
Format in all cases: in vivo
Lolium perenne (LOLPE) = conditions: Lolium perenne, rate 250 g/ha
Method in brief: (§1)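 Potted test plants in standard soil received the compound pre-emergence (day 1) or post-emergence (about day 12). Evaluation: visual damage score from 0% (none) to 100% (total), 15 days after application post-emergence, 20 days pre-emergence.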

Avena fatua (AVEFA) = conditions: Avena fatua, rate 250 g/ha
Method in brief: as §1

[1] = test system: Alopecurus myosuroides (ALOMY); conditions: Alopecurus myosuroides, rate 250 g/ha
Method in brief: as §1

[2] = test system: Echinochloa crus-galli (ECHCG); conditions: Echinochloa crus-galli, rate 250 g/ha
Method in brief: as §1

[3] = post-emergence, 360 h, POST-emergence, visual score 15 DAA (100%=total damage, 0%=no damage), read-out: Post-emergence herbicidal activity (percentage phytotoxicity) LOLPE POST
[4] = pre-emergence, 480 h, PRE-emergence, visual score 20 DAA (100%=total damage, 0%=no damage), read-out: Pre-emergence herbicidal activity (percentage phytotoxicity) LOLPE PRE
[5] = post-emergence, 360 h, POST-emergence, visual score 15 DAA (100%=total damage, 0%=no damage), read-out: Post-emergence herbicidal activity (percentage phytotoxicity) AVEFA POST
[6] = pre-emergence, 480 h, PRE-emergence, visual score 20 DAA (100%=total damage, 0%=no damage), read-out: Pre-emergence herbicidal activity (percentage phytotoxicity) AVEFA PRE
[7] = post-emergence, 360 h, POST-emergence, visual score 15 DAA (100%=total damage, 0%=no damage), read-out: Post-emergence herbicidal activity (percentage phytotoxicity) ALOMY POST
[8] = pre-emergence, 480 h, PRE-emergence, visual score 20 DAA (100%=total damage, 0%=no damage), read-out: Pre-emergence herbicidal activity (percentage phytotoxicity) ALOMY PRE
[9] = post-emergence, 360 h, POST-emergence, visual score 15 DAA (100%=total damage, 0%=no damage), read-out: Post-emergence herbicidal activity (percentage phytotoxicity) ECHCG POST
[10] = pre-emergence, 480 h, PRE-emergence, visual score 20 DAA (100%=total damage, 0%=no damage), read-out: Pre-emergence herbicidal activity (percentage phytotoxicity) ECHCG PRE

Row | SMILES | pest or weed control at 250 g/ha (Lolium perenne (LOLPE); [3]) [%] | pest or weed control at 250 g/ha (Lolium perenne (LOLPE); [4]) [%] | pest or weed control at 250 g/ha (Avena fatua (AVEFA); [5]) [%] | pest or weed control at 250 g/ha (Avena fatua (AVEFA); [6]) [%] | pest or weed control at 250 g/ha [1, 7] [%] | pest or weed control at 250 g/ha [1, 8] [%] | pest or weed control at 250 g/ha [2, 9] [%] | pest or weed control at 250 g/ha [2, 10] [%]
1 | Cc1cc(OCC(F)(F)F)cc(C)c1C1C(=O)CC(CC(=O)NC(C)C)C1=O (centres unmarked) [Compound B208] | 90 | 80 | 90 | 80 | 90 | 90 | 100 | 100
2 | C=CCNC(=O)CC1CC(=O)C(c2c(C)cc(OCC(F)(F)F)cc2C)C1=O (centres unmarked) [Compound B209] | 80 | 90 | 80 | 80 | 90 | 100 | 100 | 100
3 | Cc1cc(OCC(F)(F)F)cc(C)c1C1C(=O)CC(CC(=O)NCC2CC2)C1=O (centres unmarked) [Compound B210] | 90 | 100 | 90 | 80 | 100 | 100 | 100 | 100
4 | CCN(C)C(=O)CC1CC(=O)C(c2c(C)cc(OCC(F)(F)F)cc2C)C1=O (centres unmarked) [Compound B211] | 90 |  | 90 | 80 | 90 | 90 | 100 | 100
5 | Cc1cc(OCC(F)(F)F)cc(C)c1C1C(=O)CC(CC(=O)N(C)C(C)(C)C)C1=O (centres unmarked) [Compound B212] | 70 | 90 | 60 | 60 | 90 | 60 | 90 | 100
6 | C#CCN(C)C(=O)CC1CC(=O)C(c2c(C)cc(OCC(F)(F)F)cc2C)C1=O (centres unmarked) [Compound B213] | 90 | 70 | 90 | 50 | 90 | 80 | 100 | 90
7 | CCc1cc(OCC(F)(F)F)cc(C)c1C1C(=O)CC(CC(=O)NCc2cccc(F)c2)C1=O (centres unmarked) [Compound B214] | 100 | 90 | 100 | 90 | 100 | 100 | 100 | 100
8 | CCc1cc(OCC(F)(F)F)cc(C)c1C1C(=O)CC(CC(=O)NCc2ccc(OC)cc2)C1=O (centres unmarked) [Compound B215] | 100 | 90 | 100 | 80 | 100 | 90 | 100 | 90
9 | CCc1cc(OCC(F)(F)F)cc(C)c1C1C(=O)CC(CC(=O)NCc2ccc(C#N)cc2)C1=O (centres unmarked) [Compound B216] | 90 | 70 | 90 | 70 | 100 | 80 | 100 | 90
10 | CCc1cc(OCC(F)(F)F)cc(C)c1C1C(=O)CC(CC(=O)NC(C)C)C1=O (centres unmarked) [Compound B217] | 100 | 100 | 100 | 100 | 100 | 100 | 100 | 100
11 | C=CCNC(=O)CC1CC(=O)C(c2c(C)cc(OCC(F)(F)F)cc2CC)C1=O (centres unmarked) [Compound B218] | 100 | 100 | 100 | 90 | 100 | 100 | 100 | 100
12 | CCc1cc(OCC(F)(F)F)cc(C)c1C1C(=O)CC(CC(=O)NCC2CC2)C1=O (centres unmarked) [Compound B219] | 100 | 100 | 100 | 90 | 100 | 100 | 100 | 90
13 | CCc1cc(OCC(F)(F)F)cc(C)c1C1C(=O)CC(CC(=O)N(C)CC)C1=O (centres unmarked) [Compound B220] | 100 | 100 | 100 | 90 | 100 | 100 | 100 | 100
14 | CCc1cc(OCC(F)(F)F)cc(C)c1C1C(=O)CC(CC(=O)N(C)C(C)(C)C)C1=O (centres unmarked) [Compound B221] | 100 | 100 | 100 | 100 | 100 | 100 | 100 | 100
15 | C#CCN(C)C(=O)CC1CC(=O)C(c2c(C)cc(OCC(F)(F)F)cc2CC)C1=O (centres unmarked) [Compound B222] | 100 | 100 | 100 | 90 | 100 | 100 | 100 | 100
16 | Cc1cc(-n2cc(Cl)cn2)cc(C)c1C1C(=O)CC(CC(=O)NCc2cccc(F)c2)C1=O (centres unmarked) [Compound B223] | 80 | 80 | 100 | 70 | 90 | 90 | 100 | 90
17 | COc1ccc(CNC(=O)CC2CC(=O)C(c3c(C)cc(-n4cc(Cl)cn4)cc3C)C2=O)cc1 (centres unmarked) [Compound B224] | 80 | 70 | 80 | 50 | 80 | 80 | 90 | 70
18 | Cc1cc(-n2cc(Cl)cn2)cc(C)c1C1C(=O)CC(CC(=O)NCc2ccc(C#N)cc2)C1=O (centres unmarked) [Compound B225] | 60 | 0 | 70 | 0 | 60 | 0 | 70 | 0
